Source: patent publication US20060063707A1, “Compositions for enhancing memory and methods therefor” (Lifelike Biomatic, Inc., priority 2004, published 2006)
“Also recorded” adds a separate entry of the source.

Experiments:
[1] = test system: adult mice hippocampal slices; experiment: LTP induction in hippocampal slices (EPSP slopes in CA1 after theta-burst stimulation); assay type: cell-based
Protocol: Adult mice hippocampal slices were prepared according to standard procedures as described in Dunwiddie and Lynch (J. Physiol. 276:353-367. 1978). Briefly, mice were decapitated following anesthesia, the brains rapidly removed and the hippocampus dissected. Transverse hippocampal slices (400 μm thick) were cut with a McIllwain tissue slicer (Stoelting Co., Wood Dale, Ill.). Slices were pre-incubated for at least 60 min in an artificial cerebrospinal fluid (aCSF) containing (in mM) NaCl (124), KCl (3), KH2PO4 (1.25), MgSO4 (2.5), CaCl2 (3.4), NaHCO3 (26), glucose (10); and L-ascorbate (2) before being placed in a recording chamber. Slices were continuously perfused with aCSF containing no added drug, 20 μM CX546, 2 μM D, L-serine, or a combination of 20 μM CX546 and 2 μM D, L-serine. A stimulating electrode was placed in the stratum radiatum at the junction of CA3 and CA1 and a recording electrode was placed in the stratum radiatum of CA1. Baseline recording with a stimulation frequency of 0.033 Hz was done for at least 10 min. After obtaining a stable baseline for 10 min, LTP was elicited in CA1 stratum radiatum by stimulation of the Schaffer collateral pathways by using high frequency stimulation of 5 bursts of 3 pulses at 100 Hz, with the bursts delivered at the theta frequency, i.e., 5 Hz. Low frequency stimulation was resumed and responses recorded for at least 30 min.
Slopes of the extracellular postsynaptic potentials (EPSPs) were calculated and expressed as percent of the average values recorded during the 10 min baseline period. Results were averaged and expressed as means±s.e.m.
In particular, slices were prepared as cited above and EPSPs were evoked in CA1 stratum radiatum by stimulation of the Schaffer collateral pathways once every 30 seconds. At t=0, high frequency stimulation (5 bursts of 3 pulses at 100 Hz with bursts delivered at 5 Hz) was delivered, and low frequency stimulation resumed. Slopes of EPSPs were calculated and expressed as percent over the average values during the 10 minute baseline. […] The data of FIG. 3 therefore represent the means±s.e.m., of 8 slices for control conditions (●), and 6 slices for the combination of 250 μM piracetam and 2 μM D, L-serine (▪). Results were statistically significant with ANOVA with repeated measures.
Slices were incubated in control medium. LB-302 (100 μM) was added to the medium at t=20 min and LTP was induced as in Example 1 by using high frequency stimulation of 5 bursts of 3 pulses at 100 Hz, with the bursts delivered at the theta frequency, i.e., 5 Hz delivered at t=47 min.

[2] = target: T1, GluR4 flip (Homo sapiens, UniProt P48058); experiment: Potentiation of L-glutamate mediated currents on HEK cells expressing GluR4 flip (Ornstein et al.); assay type: cell-based
T1 construct: expressed in transfected cells; host or cells: HEK cells
T1 sequence (P48058 21-902): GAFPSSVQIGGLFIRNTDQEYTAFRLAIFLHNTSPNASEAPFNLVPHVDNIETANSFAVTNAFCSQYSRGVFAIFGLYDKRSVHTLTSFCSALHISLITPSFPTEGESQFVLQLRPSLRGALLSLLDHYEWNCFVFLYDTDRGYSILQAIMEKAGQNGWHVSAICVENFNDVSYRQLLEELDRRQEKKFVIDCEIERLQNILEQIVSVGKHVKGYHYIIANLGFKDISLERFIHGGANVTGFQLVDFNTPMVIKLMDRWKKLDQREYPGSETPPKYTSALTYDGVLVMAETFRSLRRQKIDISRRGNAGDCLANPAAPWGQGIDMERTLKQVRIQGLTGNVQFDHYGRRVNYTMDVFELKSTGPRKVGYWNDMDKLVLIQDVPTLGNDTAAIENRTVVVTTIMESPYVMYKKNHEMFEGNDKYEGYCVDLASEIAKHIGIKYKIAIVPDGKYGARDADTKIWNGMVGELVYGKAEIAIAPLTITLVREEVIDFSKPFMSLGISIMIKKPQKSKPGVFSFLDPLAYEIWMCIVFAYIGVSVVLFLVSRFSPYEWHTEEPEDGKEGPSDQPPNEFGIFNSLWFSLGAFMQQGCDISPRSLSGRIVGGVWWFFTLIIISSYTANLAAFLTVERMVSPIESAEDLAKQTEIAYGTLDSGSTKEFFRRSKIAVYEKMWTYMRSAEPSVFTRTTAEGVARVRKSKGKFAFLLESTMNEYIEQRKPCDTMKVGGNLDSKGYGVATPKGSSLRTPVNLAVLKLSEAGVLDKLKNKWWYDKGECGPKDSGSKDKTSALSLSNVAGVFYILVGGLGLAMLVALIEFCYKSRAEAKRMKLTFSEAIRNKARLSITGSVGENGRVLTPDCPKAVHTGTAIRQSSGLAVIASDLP
Protocol: From a study of the structure-activity relationship of the compounds of Ornstein (Ornstein, et al., 2000, ibid), a derivative of LY404187 designated 22h was chosen to provide the ampakine functionality of the new fusion molecule. The structural difference between LY404187 and the 22h derivative is that 22h has an amino substituent on the distal aromatic ring of the biphenyl group instead of a cyano substituent.

[3] = test system: scopolamine-induced learning and memory deficits; experiment: Morris water maze, scopolamine-induced learning deficits (escape latency); assay type: in vivo, Male Wistar rats
Protocol: Learning and memory performance: Learning and memory performances were tested in the conventional Morris water maze according to the following procedure. The Morris maze includes a circular water tank (150 cm in diameter) filled with water and maintained at 27° C. with an escape platform (15 cm in diameter) 18 cm from the perimeter always in the same position 2 cm beneath the surface of the water. The water is made opaque by addition of milk powder rendering the platform invisible.
Male Wistar rats (200-230 g body weight, maintained in standard laboratory conditions) were given a single training session on one day. A training session consists of 4 consecutive trials (T1-T4) in the Morris water maze separated by 60 seconds. For each trial the animal is placed in the maze at one of two starting points equidistant from the escape platform and allowed to find the escape platform. The animal is left on the escape platform for 60 seconds before starting a new trial. […] During the 4 trials the animals start the maze twice from each starting point in a randomly determined order per animal. The time the animal takes to find the escape platform is referred to as the “escape latency.”
Measure of escape latency in control and test animals: The ampakine, the nemdakine, and the combination of ampakine and nemdakine of the present invention were administered p.o. to test animals 60 minutes before a test session in the maze (t=−60 min). Scopolamine was administered i.p. to induce learning and memory deficits 30 minutes later, i.e., 30 minutes before the test session in the maze (t=−30 min). Scopolamine induces amnesia as shown by the failure of scopolamine-treated animals to reduce their escape latencies from trial to trial. […]
The principal measure taken at each trial was the escape latency. Measures consisted in the time the animals took to find the platform and were analyzed by ANOVA with repeated measures. […]

[4] = test system: LTP; settings: agent alone; cited from earlier work
[5] = test system: AMPA-induced currents in cerebellar Purkinje cells as well as in hippocampal pyramidal neurons; experiment: Increase of AMPA-induced currents in neurons (Gates et al.); assay type: cell-based
Text: The ampakine functionality of LB-253-4c is a biarylpropylsulfonamide (Ornstein et al., ibid). […] The new fusion molecule, LB-253-4c, therefore, likely has a different mode of action compared to that of cyclothiazide, a mode of action more directed towards deactivation instead of desensitization.

[6] = target: T1, GluR4 flip; settings: HEK cells expressing GluR4 flip; read-out: potentiation of the L-glutamate mediated currents; cited from earlier work

For NC(CO)C(=O)O (racemic) [D, L-serine], the “levels of potentiation / responses (EPSP slope) as compared to control slices” value ([1]; 2 μM D, L-serine alone) was “did not modify the levels of potentiation; also recorded: did not produce any significant effect”.

In the case of CC(CNS(=O)(=O)C(C)C)c1ccc(-c2ccc(N)cc2)cc1 (centres unmarked) [22h], the “activity relative to LY404187” value [2] is reported as “about 2 fold”.

For N[C@H](CO)C(=O)O [D-serine], the “reversal of scopolamine-induced impairment” value ([3]; 1000 mg/kg p.o. at t=−60 min, then scopolamine 0.5 mg/kg i.p.) is listed as “statistically significant reversal of scopolamine-induced impairment” and the “concentration known to facilitate LTP” value [4] is listed as 10 µM.

For NC(CO)(CC1=CCN(Cc2ccccc2)CC1)C(=O)O (centres unmarked) [LB-302, 2-amino-3-(1-benzyl-1,2,3,6-tetrahydro-pyridin-4-yl)-2-hydroxymethyl-propionic acid], the LTP amplitude ([1]; LB-302 100 μM) was “dramatic increase in LTP amplitude” and the baseline response ([1]; LB-302 100 μM) was “small increase in baseline response”.

In the case of CC(CNS(=O)(=O)C(C)C)c1ccc(-c2ccc(C#N)cc2)cc1 (centres unmarked) [LY404187, N-2-(4-(cyanophenyl)phenyl)propyl-2-propanesulfonamide], the “potency relative to CX546” value [5] is listed as “about 1000 times” and the EC50 [6] is listed as 290 nM.

For NC(=O)CN1CCCC1=O [piracetam], the “effect on the responses (EPSP slope)” value ([1]; piracetam 250 μM alone) was “did not produce any significant effect” and the “reversal of scopolamine-induced learning impairment” value ([3]; 500 mg/kg p.o. at t=−60 min, then scopolamine 0.5 mg/kg i.p.) was “trend towards a reversal of scopolamine-induced learning impairment, although this effect did not reach statistical significance”.

With CN1[C@@H]2C[C@@H](OC(=O)[C@H](CO)c3ccccc3)C[C@H]1[C@@H]1O[C@@H]12 [scopolamine] the “performance (escape latency) across the 4 trials” value ([3]; scopolamine alone 0.5 mg/kg i.p. at t=−30 min) was “failed to improve their performance across the 4 trials”.
